Measurements published in patent US10286063B2 (priority 2015, dated 2019).

Tested on: PBMC
Assay type: cell-based, human

RGILKRNSSSSSTDS [Peptide 5-HUMAN-B, reference compound]
% Inhibition by HLA-DR blocking Ab: 100%
